Data on nine molecules can be found in ChEMBL document CHEMBL1201862, “PubChem BioAssay data set” (2004).

The structures appear in SMILES notation.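 Method: 48-hour compound exposure of cells in 96-well plates, five concentrations, linear interpolation of endpoints. Abbreviation: GI50, concentration required for 50% inhibition of growth.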 The source made the active and inactive calls. No stated cut-off is given here; in the data, active = GI50 up to about 1.1 µM and inactive = higher.

Among the test systems are SR; NCI-H226; A549; CAKI-1; K562; SK-OV-3; M14; LOX IMVI; OVCAR-4; HT-29; UACC-257; TK-10; ACHN; SK-MEL-2; HOP-62; SK-MEL-5; KM12; HCT-15.
What all share (experiment): NCI-60 cell line screen, 48 h

Regarding `O=[N+]([O-])c1c(/C=N/Nc2ccccc2)oc(-c2ccc3c(c2)OCO3)c1-c1ccc2c(c1)OCO2`, the GI50 was 1.54 µM (inactive) in the assay with SR; > 100 µM (inactive) in the assay on NCI-H226; 11 µM (inactive) in the assay on A549; 8.22 µM (inactive) in the assay on CAKI-1; 3.06 µM (inactive) with K562; 30.5 µM (inactive) with SK-OV-3. For the same molecule, the GI50 in the assay with M14 is 3 µM (inactive); in the assay with LOX IMVI, 0.74 µM (active); with OVCAR-4, 21.5 µM (inactive); with HT-29, 23.8 µM (inactive); in the assay on UACC-257, 30.3 µM (inactive); in the assay on TK-10, 19 µM (inactive). Moreover, the GI50 in the assay on ACHN was 4.28 µM (inactive); in the assay with SK-MEL-2, 2.49 µM (inactive); in the assay on HOP-62, 3.9 µM (inactive).

Regarding `CCN/C(=N\Nc1ccc([N+](=O)[O-])cc1)P(=O)(OC(C)C)OC(C)C`, the GI50 in the assay with SR is > 100 µM (inactive); in the assay on NCI-H226 it was 25.8 µM (inactive); in the assay on A549 it was > 100 µM (inactive); in the assay on CAKI-1, > 100 µM (inactive); in the assay on SK-MEL-5, 41.1 µM (inactive); with KM12 it was > 100 µM (inactive). Moreover, the GI50 in the assay with K562 was > 100 µM (inactive); in the assay with M14, > 100 µM (inactive); with LOX IMVI, > 100 µM (inactive); with OVCAR-4 it was 44.2 µM (inactive); with HCT-15, above 100 µM; in the assay on UACC-257, 68.1 µM (inactive). Besides, the GI50 with TK-10 is > 100 µM (inactive); in the assay with ACHN, > 100 µM (inactive); with SK-MEL-2, > 100 µM (inactive); with HOP-62, 95.9 µM (inactive).

Take `Cc1cnc2c(c1)C(=O)C1=C(OC(C)(C)CC1O)C2=O` (stereo not drawn): the GI50 in the assay with SR was 7.89 µM (inactive); in the assay on NCI-H226, 20.1 µM (inactive); with A549, 16.2 µM (inactive); in the assay on SK-MEL-5 it was 14 µM (inactive); in the assay on KM12, > 100 µM (inactive); in the assay on K562, 16.8 µM (inactive). Moreover, the GI50 in the assay with SK-OV-3 was 18.9 µM (inactive); with M14, 16.4 µM (inactive); with LOX IMVI, 10.5 µM (inactive); with OVCAR-4, 12.8 µM (inactive); in the assay with HCT-15, 16.7 µM; in the assay with HT-29 it was 20.6 µM (inactive). For the same molecule, the GI50 in the assay with UACC-257 is 13.3 µM (inactive); with TK-10, 18.5 µM (inactive); with ACHN, 15.2 µM (inactive); in the assay on SK-MEL-2, > 100 µM (inactive); in the assay with HOP-62, 19.4 µM (inactive).

On to `c1ccc(C2=NN3CN(N2)c2ccccc2OCCCOc2ccccc23)cc1`, for which the GI50 in the assay with SR is 92.7 µM (inactive); with NCI-H226 it was > 100 µM (inactive); in the assay on A549 it was > 100 µM (inactive); with SK-MEL-5 it was > 100 µM (inactive); with KM12 it was > 100 µM (inactive); with K562, > 100 µM (inactive). The GI50 in the assay with M14 was > 100 µM (inactive); in the assay with LOX IMVI, > 100 µM (inactive); in the assay with OVCAR-4, 77.6 µM (inactive); with HCT-15, above 100 µM; with HT-29 it was > 100 µM (inactive); in the assay on TK-10, > 100 µM (inactive). The GI50 with ACHN, with SK-MEL-2 and with HOP-62 was > 100 µM (inactive) in each case.

For `CCC(=O)OC[n+]1ccc2c(C)c3[nH]c4ccccc4c3c(C)c2c1`, the GI50 in the assay on SR is 0.0423 µM (active); in the assay with NCI-H226, 0.735 µM (active); in the assay with A549, 0.272 µM (active); with CAKI-1, 1.11 µM (active); with SK-MEL-5 it was 1.25 µM (inactive); with KM12, 0.483 µM (active). The GI50 was 0.618 µM (active) in the assay on K562; 1.08 µM (active) in the assay with M14; 0.337 µM (active) in the assay on LOX IMVI; 0.505 µM (active) in the assay with OVCAR-4; 0.328 µM (active) in the assay with HT-29; 1.37 µM (inactive) in the assay with UACC-257. The GI50 is 1.36 µM (inactive) in the assay with TK-10, 0.289 µM (active) in the assay with ACHN and 1.03 µM (active) in the assay with SK-MEL-2.

With `N#CC1C(C#N)C2(c3ccccc3)C(c3ccccc3)=NN(c3ccccc3)CC12` (stereo not drawn), the GI50 in the assay with SR, in the assay on NCI-H226, in the assay with A549, with CAKI-1, with SK-MEL-5 and in the assay on KM12 was > 100 µM (inactive) throughout. Moreover, the GI50 in the assay with K562 is > 100 µM (inactive); in the assay with M14, > 100 µM (inactive); with LOX IMVI it was > 100 µM (inactive); in the assay on OVCAR-4 it was 95.3 µM (inactive); with HCT-15, above 100 µM; in the assay on UACC-257, > 100 µM (inactive). Besides, the GI50 in the assay on TK-10, in the assay on ACHN and with SK-MEL-2 was > 100 µM (inactive) in each case.

Regarding `O=C(O)c1ccc(C2=Cc3cc(Cl)ccc3OC2)cc1`, the GI50 in the assay on SR, with NCI-H226, with A549, with CAKI-1, in the assay on SK-MEL-5 and in the assay with KM12 was > 100 µM (inactive) each time. Besides, the GI50 was > 100 µM (inactive) in the assay with K562; > 100 µM (inactive) with SK-OV-3; > 100 µM (inactive) in the assay on M14; > 100 µM (inactive) in the assay on LOX IMVI; above 100 µM in the assay with HCT-15; > 100 µM (inactive) with HT-29. For the same molecule, the GI50 in the assay on UACC-257, in the assay with TK-10, with ACHN, in the assay on SK-MEL-2 and in the assay with HOP-62 was > 100 µM (inactive) each time.

For `CC(C)(C)c1cc(C(=O)O)c2c(c1)C(=O)OC2(c1ccccc1)c1ccccc1C(=O)O` (stereo not drawn), the GI50 in the assay on SR is > 100 µM (inactive); with NCI-H226, 23.9 µM (inactive); with A549, > 100 µM (inactive); with CAKI-1, > 100 µM (inactive); with KM12, > 100 µM (inactive); in the assay with K562, > 100 µM (inactive). Moreover, the GI50 with SK-OV-3 was 0.0611 µM (active); in the assay on M14, > 100 µM (inactive); with LOX IMVI, > 100 µM (inactive); with OVCAR-4 it was 78.3 µM (inactive); in the assay on HCT-15, above 100 µM; in the assay on HT-29 it was > 100 µM (inactive). The GI50 was > 100 µM (inactive) in the assay on UACC-257; > 100 µM (inactive) in the assay on TK-10; 77.3 µM (inactive) in the assay on ACHN; > 100 µM (inactive) in the assay on SK-MEL-2; > 100 µM (inactive) with HOP-62.

As for `CNC(=S)NNC(=O)c1c(C)nc2sccn12`, the GI50 with SR, in the assay with NCI-H226, with A549, in the assay on CAKI-1, with SK-MEL-5 and with KM12 was > 100 µM (inactive) in each case. Moreover, the GI50 was > 100 µM (inactive) in the assay with K562; > 100 µM (inactive) with SK-OV-3; > 100 µM (inactive) with LOX IMVI; above 100 µM in the assay with HCT-15; > 100 µM (inactive) with HT-29; > 100 µM (inactive) in the assay on UACC-257. Further, the GI50 in the assay with TK-10, in the assay on ACHN, in the assay with SK-MEL-2 and in the assay with HOP-62 was > 100 µM (inactive) throughout.
